Assay results reported in patent US20120129712A1, “ANTIBODIES DIRECTED TO TRA ANTIGENS, AND METHODS OF PRODUCTION, SCREENING AND ANALYSIS OF SAID ANTIBODIES, AS WELL AS METHODS OF ANALYSIS OF STEM CELLS AND CANCER CELL” (GLYKOS FINLAND OY, priority 2009, published 2012).
“Also recorded” adds a separate entry of the source.

Legend:
Tra-1-81 antibody = assay: Glycan microarray analysis (Consortium for Functional Glycomics printed array v3.2), binding of Tra-1-81; set-up: RFU (glycan binding signal of Tra-1-81): dose or concentration left out as unconfirmed; conditions: for RFU (glycan binding signal of Tra-1-81): Tra-1-81 (Chemicon MAB4381), average RFU of 6 replicates after removal of highest and lowest values; for binding of Tra-1-81 to the glycan, in words: glycan microarray
Procedure: (§1) Tra-1-81 and Tra-1-60 antibodies were from Chemicon (MAB4381 and MAB4361, respectively).
(§2) Glycan microarray analysis was carried out by the Consortium for Functional Glycomics. Glycan microarrays were printed as described (Blixt 2004). Version 3.2 of the human printed glycan array was used for analysis. Binding analysis was performed at […] of antibody. Data are reported as average RFU of 6 replicates after removal of highest and lowest values.

Tra-1-60 antibody = assay: Glycan microarray analysis (Consortium for Functional Glycomics printed array v3.2), binding of Tra-1-60
Procedure: as §1, §2

Substance	RFU (glycan binding signal of Tra-1-81) (Tra-1-81 antibody) [RFU]	binding of Tra-1-81 to the glycan, in words (Tra-1-81 antibody; listed as Galβ1-3GlcNAcβ1-3Galβ1-4GlcNAc)	binding of Tra-1-60 to the glycan, in words (Tra-1-60 antibody)	binding of Tra-1-81 to the glycan, in words (Tra-1-81 antibody)
Galb1-3GlcNAcb1-3Galb1-4GlcNAcb-Sp0 [Chart # 130]	721	binding; also recorded: specifically bound	exclusively bound	
Galb1-3GlcNAcb1-3Galb1-4Glcb-Sp10 [Chart # 131]			very weak or non-essential binding	weakly bound
Galb1-3GlcNacb1-3(Galb1-3GlcNacb1-3Galb1-4GlcNacb1-6)Galb1-4Glcb-Sp0 [Chart # 379]	147			specifically bound
Lewis a				weakly bound
